Laboratory results reported in PMC12040169 (PLOS Biology, 2025).

assay: in vitro; details: human, hela cells

Structure (SMILES)	viability at 28.5 h, 10 µM
CS(=O)(=O)c1ccc(-c2ccc3c(c2)OCCN(C2CCN(C(=O)Oc4ccccc4)CC2)C3)cc1 [CBK169259]	79.9%
CS(=O)(=O)c1ccc(-c2ccc3c(c2)CCN(C2CCN(C(=O)Oc4ccccc4)CC2)C3)cc1 [CBK169518]	90.1%

same assay, conditions: human, hela cells, % viability

Structure (SMILES)	viability at 28.5 h, 10 µM
COc1ccc(C(=O)N2CCC3(CC2)NC(=O)c2ccc(C(F)(F)F)cc2O3)cc1OC [CBK166265]	102%
COc1ccc2c(c1)C(=O)NC1(CCN(C(=O)c3ccc(OC)c(C)c3)CC1)O2 [CBK166291]	106%
CCCN(C)Cc1ccc(-c2cn(CC(=O)NCc3ccc4c(c3)OC(F)(F)O4)nn2)cc1 [CBK166361]	101%
CCCN(C)Cc1ccc(-c2cn(CC(=O)NCc3ccc(OCC(F)F)cc3)nn2)cc1 [CBK166365]	106%
COc1ccc(S(=O)(=O)N2CCC3(CC2)CC(=O)c2ccc(C)cc2O3)cc1OC [CBK166515]	96.8%
COc1cc(NC(=O)N2CCC3(CC2)CC(=O)c2ccc(C)cc2O3)cc(OC)c1 [CBK166521]	90.3%
CC(C)(C)OC(=O)N1CCC(N(CCC(F)(F)F)Cc2ccc(-c3ccc(S(C)(=O)=O)cc3)nc2)CC1 [CBK167262]	81%
Cc1cc(N2CCC(O)CC2)nc(N)n1 [CBK167265]	109%
Cc1cc(N2CCC(N(C)C)CC2)nc(N)n1 [CBK167267]	106%
Cc1nc2c(C(=O)NCCOCCO)cnn2c(C)c1Cc1cccc(OC(F)(F)F)c1 [CBK167454]	114%
Cc1nc2c(C(=O)NCC3OCCO3)cnn2c(C)c1Cc1ccc(Br)cc1 [CBK167467]	99.8%
CC(C)(O)CCN(Cc1ccc(-c2ccc(S(C)(=O)=O)cc2)nc1)C1CCN(C(=O)OC(C)(C)C)CC1 [CBK167517]	101%
CCCNCc1ccc(-c2nnn(CC(=O)NCc3ccc(C4CCC4)cc3)n2)cc1 [CBK167525C]	105%
CN(C)CCNC(=O)c1ccc(-c2cnc(OCC3CCN(C(=O)OC(C)(C)C)CC3)nc2)cc1 [CBK167544]	89.8%
C[C@H](NC(=O)Cn1cc(-c2ccc(CN3CCCC3)cc2)nn1)c1ccc(Br)cc1 [CBK167692]	86%
COc1cc(OC)cc(C(=O)N2CCC3(CC2)CC(=O)c2cc(C)ccc2O3)c1 [CBK167804]	94.6%
Cc1cc(N2CCC(N3CCN(C)CC3)CC2)nc(N)n1 [CBK167964]	94.3%
CCOc1cc(OCC)cc(C(=O)N2CCC3(CC2)CC(=O)c2cc(CC)ccc2O3)c1 [CBK168009]	101%
CCOc1cc(OCC)cc(C(=O)N2CCC3(CC2)CC(=O)c2cc(OCC)ccc2O3)c1 [CBK168013]	87.2%
CCOc1cc(OCC)cc(C(=O)N2CCC3(CC2)CC(=O)c2ccc(OCC)c(C)c2O3)c1 [CBK168015]	112%
CCOc1cc(OCC)cc(C(=O)N2CCC3(CC2)CC(=O)c2ccc(N)cc2O3)c1 [CBK168018]	111%
CCc1ccc2c(c1)C(=O)CC1(CCN(C(=O)c3cc(OC)c(C)c(OC)c3)CC1)O2 [CBK168098]	112%
COc1cc(C(=O)N2CCCC3(CC(=O)c4ccc(C)cc4O3)C2)cc(OC)c1C (stereo not drawn) [CBK168239]	87.2%
COc1cc(C(=O)N2CCC3(CC2)CC(=O)c2cc(C)ccc2O3)cc(-c2ccc(OC)c(OC)c2)c1 [CBK168271]	88.9%
COc1cc(C(=O)N2CCC3(CC2)CC(=O)c2ccc(C)cc2O3)cc(-c2ccc(OC)c(OC)c2)c1 [CBK168282]	89.5%
NC1CCN(C(=O)c2cn(C3CC3)c3cc(Cl)c(F)cc3c2=O)CC1 [CBK168626]	93.3%
O/N=C/c1c[nH]c2ccccc12 [CBK168630]	102%

Structure (SMILES)	viability at 28.5 h, 10 µM
CCOc1cc(OCC)cc(C(=O)N2CCC3(CC2)CC(=O)c2cc(OCCN(C)C)ccc2O3)c1 [CBK169003T]	89.3%
COc1cc(OC)cc(C(=O)N2CCC3(CC2)CC(=O)c2ccc(OCCN(C)C)cc2O3)c1 [CBK169008T]	92.8%
COc1cc(C(=O)N2CCC3(CC2)CC(=O)c2ccc(-c4ccccc4)cc2O3)cc(OC)c1C [CBK169037]	89.9%
COc1cc(C(=O)N2CCC3(CC2)CC(=O)c2cc(CN4CCOCC4)ccc2O3)cc(OC)c1C [CBK169182]	109%
COc1cc(C(=O)N2CCC3(CC2)CC(=O)c2cc(CN4CCN(C)CC4)ccc2O3)cc(OC)c1C [CBK169185]	94.6%
O=C(CCCC1CCNCC1)Nc1nnc(C2CC2)s1 [CBK169224]	97.1%
CS(=O)(=O)c1ccc(-c2ccc3c(c2)OCCN(C2CCN(C(=O)CC(F)(F)F)CC2)C3)cc1 [CBK169260]	90.8%
CS(=O)(=O)c1ccc(-c2ccc3c(c2)CN(C2CCN(C(=O)c4ccccc4)CC2)CCO3)cc1 [CBK169265]	103%
Cc1nc2c(C(=O)NCCNC(=O)c3cccnc3)ncn2c(C)c1Cc1ccc(F)c(Cl)c1 [CBK169332]	89.8%
CN(C)CCOc1ccc2c(c1)OC1(CCN(C(=O)c3ccc4sc(N)nc4c3)CC1)CC2=O [CBK169380]	91.4%
COc1ccc(-c2ccc3c(c2)OC2(CCN(C(=O)c4cc(OC)c(C)c(OC)c4)CC2)CC3=O)cn1 [CBK169424]	107%
O=C1CC2(CCN(C(=O)c3ccc4cc[nH]c4c3)CC2)Oc2ccc(CN3CCOCC3)cc21 [CBK169469]	121%
Cc1cc(N2CCCN3CCCCCC32)nc(N)n1 (stereo not drawn) [CBK169746]	102%
CC(C)(C)OC(=O)NCc1ccc(-c2nnc(CC(=O)O)o2)cc1 [CBK169899D]	96.5%
CNC1CCN(S(=O)(=O)c2sc3ccc(C(C)C)cc3c2C)C1 (stereo not drawn) [CBK170067]	110%
COC(=O)c1ccc(-c2cnc(OCC3CCN(C(=O)OC(C)(C)C)CC3)nc2)nc1 [CBK170130]	101%
Cc1cc(NC2CC3CCCC(C2)N3C)nc(N)n1 (stereo not drawn) [CBK170333]	88.4%
Cc1c(S(=O)(=O)N2CCN(C3CCN(C)CC3)CC2)sc2ccc(C(C)C)cc12 [CBK170352]	105%
Cc1cc(CNS(=O)(=O)c2sc3ccc(C(C)C)cc3c2C)no1 [CBK170353]	109%
Cc1c(S(=O)(=O)NCCN(C)C)sc2ccc(C(C)C)cc12 [CBK170357]	90.2%
Cc1cc(NC(=O)C(C)OC(=O)C(NC(=O)OC(C)(C)C)c2ccccc2)no1 (stereo not drawn) [CBK170398]	100%
COc1cc(C(=O)N2CCC3(CC2)CC(=O)c2cc(-c4ccc(N(C)C)cc4)ccc2O3)cc(OC)c1C [CBK170663]	108%
COc1cc(C(=O)N2CCC3(CC2)CC(=O)c2cc(NC(C)=O)ccc2O3)nc2c(OC)cccc12 [CBK170664]	122%
O=C(OCc1ccccc1)N1CCC(C(=O)N(CCc2ccccc2)Cc2ccccc2)CC1 [CBK171978]	92.5%
CCC(CC)C(=O)N1CCC(CNc2cnc(-c3ccc(S(C)(=O)=O)cc3)cn2)CC1 [CBK172021]	99.5%
CN(C)[C@H]1CCN(C(=O)c2ccc(Nc3cncc(Cl)n3)cn2)C1 [CBK172073]	88.8%
Fc1ccc2c(c1)[C@@H](Oc1cncc(NC3CCCNC3)n1)CCO2 (stereo partly drawn) [CBK172256G]	92.6%

Structure (SMILES)	viability at 28.5 h, 10 µM
Cc1cccc2c1OCC[C@@H]2Oc1cncc(N2CCNCC2)n1 [CBK172310G]	101%
C[C@H](Oc1cncc(N2CCNCC2)n1)c1ccccc1Cl [CBK172341G]	108%
O=S1(=O)Cc2ccccc2C(Oc2cncc(N3CCNCC3)n2)C1 (stereo not drawn) [CBK172344T]	91.2%
c1ccc2c(c1)CSCC2Oc1cncc(N2CCNCC2)n1 (stereo not drawn) [CBK172356T]	94.9%
c1ccc2c(c1)OCC(COc1cncc(N3CCNCC3)n1)O2 (stereo not drawn) [CBK172357G]	101%
Cc1ccc(S(=O)(=O)Nc2ccc3c(ccn3CCOC3CCN(C(=O)OC(C)(C)C)CC3)c2)cc1Cl [CBK172991]	99%
O=C(c1ccc(-c2ccc(OCC3CCN(c4ncccn4)CC3)cn2)cc1)N1CCOCC1 [CBK173183]	91.8%
COc1ccccc1-c1nc2ccccn2c1CO [CBK173210]	113%
CCN(CC)C(=O)CCNC(=O)c1ccc2c(c1)COC(C1CCN(C(=O)OC(C)(C)C)CC1)O2 (stereo not drawn) [CBK173273]	92.2%
CC(C)(C)OC(=O)N1CCC(C2OCc3cc(-c4ccc(S(C)(=O)=O)cn4)ccc3O2)CC1 (stereo not drawn) [CBK173326]	87.6%
CN(Cc1ccc(-c2ccc(CO)cc2)nc1)C1CCN(C(=O)OC(C)(C)C)CC1 [CBK173453]	81.3%
Cn1cc(-c2ccc(OCC3CCN(C(=O)OC(C)(C)C)CC3)cn2)cn1 [CBK173498]	77.8%
C[S+]([O-])c1ccc(-c2cnc(NCC3CCN(C(=O)OC(C)(C)C)CC3)cn2)cc1 (stereo not drawn) [CBK173723]	83.4%
CCCNCCc1ccc(NC(=O)Nc2cc(F)cc3c2OCOC3)cc1 [CBK173887T]	97.8%
Cc1cc(COc2nc3ccccc3nc2NC[C@@H]2CCCO2)no1 [CBK174027]	119%
O=C(Nc1ccc(Cl)cc1)NC1(C(=O)NCc2ccncc2)CCCCC1 [CBK174259]	100%
CC(C)(C)OC(=O)N1CCC(NC(=O)c2ccc(-c3ccc(S(C)(=O)=O)cc3)cn2)CC1 [CBK174352]	84.8%
CCN1CCN(c2ccc(-c3ccc(OCC4CCN(C(=O)OC(C)(C)C)CC4)cn3)cn2)CC1 [CBK174505]	109%
COCc1cc(-c2ccc(C(=O)N3CCN(C)CC3)nc2)ccc1OCC1CCN(C(=O)OC(C)(C)C)CC1 [CBK174511]	84%
O=C(NC1CCOCC1)c1n[nH]c2c1CCC2 [CBK174626]	113%
CCN1CCC[C@@H]1CNC(=O)c1n[nH]c2c1CCC2 [CBK174628]	106%
COc1cccc(NC(=O)c2ccnc(Cl)c2)c1 [CBK174661]	104%
COc1cccc(NC(=O)c2ccncc2Cl)c1 [CBK174695]	96.3%
Cc1cc(OCC2CCN(C(=O)OC(C)(C)C)CC2)ccc1Br [CBK175091]	108%
CCOC(=O)c1cn[nH]c1N [CBK175217]	89.4%
